System: monocistronic NK5.1 HCV replicon in Huh7 cells
Assay: HCV replicon assay, monocistronic replicon cell line
Format: cell-based, hepatitis C virus
Conditions: Hepatitis C virus, Huh-7, 72 h; Table 1; monocistronic replicon in Huh7 cells, 3 days incubation, HCV RNA/GAPDH RNA by TaqMan RT-PCR; read-out: Mono EC50 Median
Excerpt: HCV Replicon Assays (Replicon EC50 (μM))
HCV replication can be measured by a replicon assay such as described by Vrolijk et al, J. Virol. Methods 110:201(2003), which is hereby incorporated in its entirety by reference. The method was implemented as follows.
Monocistronic Replicon Cell Line:
Human hepatocyte Huh7 cells containing the monocistronic NK5.1 replicon were obtained from Ralf Bartenschlager at the University of Mainz, Germany. These cells were maintained under hygromycin selection and passaged when 80-90% confluent.
This cell line contains an autonomously replicating RNA element (replicon) incorporating the non-structural HCV elements necessary for replication, and upon which the survival of the replicon in the cell depends. This replicon contains a single internal ribosome entry site (HCV IRES). Inhibition of any of the critical HCV finctions by a compound leads to loss of the replicon as measured by HCV replicon RNA copy number reduction. The amount of HCV RNA present following a standard incubation with a compound is a measure of the anti-HCV activity of the compound. The assay was conducted by preparing sufficient 96-well plates containing these cells, wherein cells are seeded at 6000 cells/well in a 96-well plate, in 200 μl of final media volume. Cells were then incubated for 24 hours at 37 C., 5% CO2, and 95% humidity before compound was added. Six point half-log concentration response assays were conducted to determine potency/EC50 of Formula I compounds to inhibit HCV replicon replication. The final percent DMSO acceptable in this assay system is 0.6%. Compounds were diluted in media in an appropriate format and 5 μl of each drug dilution is added to each well. Cells were then incubated with compounds for 3 days at 37 C., 5% CO2, and 95% humidity. Following the three day incubation period, plates were washed twice with phosphate buffered saline to remove media and cells were lysed with Qiagen extraction buffer. RNA was extracted and isolated with the Qiagen RNAeasy kit according to the manufacturer's protocol (Qiagen). TaqMan One-Step RT-PCR was used in conjunction with an ABI 7700 Sequence Detector (Applied Biosystems) for the quantitation and analysis of HCV replicon RNA copy number. A GAPDH probe was used for internal normalization. The ratio of HCV RNA to cellular GAPDH RNA was determined and compared to the DMSO-only treated control, and the ratio of HCV RNA/GAPDH RNA was used for an EC50 determination and as a measure of specificity for inhibition of the HCV replicon.

| Compound | EC50 |
| --- | --- |
| COc1ccc(-c2ccn(-c3ccccn3)n2)c(O)c1 [Compound 88, 5-Methoxy-2-(1-pyridin-2-yl-1H-pyrazol-3-yl)-phenol] | > 32 µM |
| COc1ccc(-c2ccn(-c3ncccc3C(F)(F)F)n2)c(O)c1 [Compound 89, 5-Methoxy-2-[1-(3-trifluoromethyl-pyridin-2-yl)-1H-pyrazol-3-yl]-phenol] | 8.8 µM |
| COc1ccc(-c2ccn(-c3ncccc3C(F)(F)F)n2)c(OCc2ccccc2)c1 [Compound 90] | 4.4 µM |
| COc1ccc(-c2ccn(-c3ncccc3C)n2)c(O)c1 [Compound 91, 5-Methoxy-2-[1-(3-methyl-pyridin-2-yl)-1H-pyrazol-3-yl]-phenol] | 9.1 µM |
| COc1ccc(-c2ccn(-c3ncccc3C)n2)c(OCc2ccccc2)c1 [Compound 92, 2-[3-(2-Benzyloxy-4-methoxy-phenyl)-pyrazol-1-yl]-3-methyl-pyridine] | 5.2 µM |
| COc1ccc(O)c(-c2ccn(-c3ncccc3C)n2)c1 [Compound 93, 4-Methoxy-2-[l-(3-methyl-pyridin-2-yl)-1H-pyrazol-3-yl]-phenol] | 9.1 µM |
| Cc1c2c(=O)oc3ccccc3c2nn1-c1ccccn1 [Compound 94] | 8.9 µM |
| COc1ccc2oc(=O)c3c(C)n(-c4ccccn4)nc3c2c1 [Compound 95] | 5.8 µM |
| COc1cccc(OCc2ccccc2)c1-c1ccn(-c2ccccn2)n1 [Compound 96, 2-[3-(2-Benzyloxy-6-methoxy-phenyl)-pyrazol-1-yl]-pyridine] | 8.6 µM |
| Oc1ccc(Br)cc1-c1ccn(-c2ccccn2)n1 [Compound 97, 4-Bromo-2-(1-pyridin-2-yl-1H-pyrazol-3-yl)-phenol] | 22 µM |
| Brc1ccc(OCc2ccccc2)c(-c2ccn(-c3ccccn3)n2)c1 [Compound 98, 2-[3-(2-Benzyloxy-5-bromo-phenyl)-pyrazol-1-yl]-pyridine] | 15 µM |
| Cc1cccnc1-n1ccc(-c2cc(Br)ccc2O)n1 [Compound 99, 4-Bromo-2-[1-(3-methyl-pyridin-2-yl)-1H-pyrazol-3-yl]-phenol] | 3.6 µM |
| Oc1ccc(Br)cc1-c1ccn(-c2ncccc2C(F)(F)F)n1 [Compound 100, 4-Bromo-2-[1-(3-trifluoromethyl-pyridin-2-yl)-1H-pyrazol-3-yl]-phenol] | 2.3 µM |
| COc1ccc(O)c(-c2ccn(Cc3ncc(C)c(OC)c3C)n2)c1 [Compound 101, 4-Methoxy-2-[1-(4-methoxy-3,5-dimethyl-pyridin-2-ylmethyl)-1H-pyrazol-3-yl]-phenol] | 14.6 µM |
| COc1ccc(O)c(-c2ccn(-c3ccc(C(=O)N4CCCCC4)cn3)n2)c1 [Compound 102, {6-[3-(2-Hydroxy-5-methoxy-phenyl)-pyrazol-1-yl]-pyridin-3-yl)-piperidin-1-yl-methanone] | > 32 µM |
| COc1ccc(OCc2ccccc2)c(-c2ccn(Cc3nccc(OC)c3OC)n2)c1 [Compound 103, 2-[3-(2-Benzyloxy-5-methoxy-phenyl)-pyrazol-1-ylmethyl]-3,4-dimethoxy-pyridine] | > 32 µM |
| COc1ccc(O)c(-c2ccn(-c3ncccc3C(=O)N3CCCCC3)n2)c1 [Compound 104, {2-[3-(2-Hydroxy-5-methoxy-phenyl)-pyrazol-1-yl]-pyridin-3-yl}-piperidin-1-yl-methanone] | > 32 µM |
| COc1ccc(O)c(-c2ccn(Cc3nccc(OC)c3OC)n2)c1 [Compound 105, 2-[1-(3,4-Dimethoxy-pyridin-2-ylmethyl)-1H-pyrazol-3-yl]-4-methoxy-phenol] | > 32 µM |
| Oc1ccc(Br)cc1-c1ccnn1-c1ncccc1C(F)(F)F [Compound 106, 4-Bromo-2-[2-(3-trifluoromethyl-pyridin-2-yl)-2H-pyrazol-3-yl]-phenol] | 15 µM |
| FC(F)(F)c1cccnc1-n1nccc1-c1cc(Br)ccc1OCc1ccccc1 [Compound 107, 2-[5-(2-Benzyloxy-5-bromo-phenyl)-pyrazol-1-yl]-3-trifluoromethyl-pyridine] | 2.6 µM |
| FC(F)(F)c1cccnc1-n1ccc(-c2cc(Br)ccc2OCc2ccccc2)n1 [Compound 108, 2-[3-(2-Benzyloxy-5-bromo-phenyl)-pyrazol-1-yl]-3-trifluoromethyl-pyridine] | > 32 µM |
| COc1ccc(O)c(-c2ccnn2Cc2ccc3ccccc3n2)c1 [Compound 109, 4-Methoxy-2-(2-quinolin-2-ylmethyl-2H-pyrazol-3-yl)-phenol] | > 32 µM |

| Compound | EC50 |
| --- | --- |
| COc1ccc(OCc2ccccc2)c(-c2ccnn2Cc2ccc3ccccc3n2)c1 [Compound 110, 2-[5-(2-Benzyloxy-5-methoxy-phenyl)-pyrazol-1-ylmethyl]-quinoline] | 8 µM |
| COc1ccc(O)c(-c2ccn(Cc3ccc4ccccc4n3)n2)c1 [Compound 111, 4-Methoxy-2-(1-quinolin-2-ylmethyl-1H-pyrazol-3-yl)-phenol] | 14 µM |
| COc1ccc(OCc2ccccc2)c(-c2ccn(Cc3ccc4ccccc4n3)n2)c1 [Compound 112, 2-[3-(2-Benzyloxy-5-methoxy-phenyl)-pyrazol-1-ylmethyl]-quinoline] | 6 µM |
| COc1ccc(O)c(-c2ccn(Cc3ccccn3)n2)c1 [Compound 113, 4-Methoxy-2-(1-pyridin-2-ylmethyl-1H-pyrazol-3-yl)-phenol] | > 32 µM |
| COc1ccc(OCc2ccccc2)c(-c2ccn(Cc3ccccn3)n2)c1 [Compound 114, 2-[3-(2-Benzyloxy-5-methoxy-phenyl)-pyrazol-1-ylmethyl]-pyridine] | 9.5 µM |
| COc1ccc(O)c(-c2ccnn2Cc2ccccn2)c1 [Compound 115, 4-Methoxy-2-(2-pyridin-2-ylmethyl-2H-pyrazol-3-yl)-phenol] | > 32 µM |
| COc1ccc(OCc2ccccc2)c(-c2ccnn2Cc2ccccn2)c1 [Compound 116, 2-[5-(2-Benzyloxy-5-methoxy-phenyl)-pyrazol-1-ylmethyl]-pyridine] | 13 µM |
| COc1ccc(O)c(-c2ccn(-c3ncccc3[N+](=O)[O-])n2)c1 [Compound 117, 4-Methoxy-2-[1-(3-nitro-pyridin-2-yl)-1H-pyrazol-3-yl]-phenol] | 25.4 µM |
| COc1ccc(-c2ccn(-c3ccccn3)n2)c(O)c1OC [Compound 118, 2,3-Dimethoxy-6-(1-pyridin-2-yl-1H-pyrazol-3-yl)-phenol] | 23.8 µM |
| COc1ccc(-c2ccn(-c3ncccc3C)n2)c(O)c1OC [Compound 119, 2,3-Dimethoxy-6-[1-(3-methyl-pyridin-2-yl)-1 H-pyrazol-3-yl]-phenol] | 11.8 µM |
| COc1cc(O)c(-c2ccn(-c3ccccn3)n2)cc1OC [Compound 120, 4,5-Dimethoxy-2-(1-pyridin-2-yl-1H-pyrazol-3-yl)-p henol] | 31.2 µM |
| COc1cc(OCc2ccccc2)c(-c2ccn(-c3ccccn3)n2)cc1OC [Compound 121, 2-[3-(2-Benzyloxy-4,5-dimethoxy-phenyl)-pyrazol-1-yl]-pyridine] | 13.5 µM |
| COc1cc(O)c(-c2ccn(-c3ncccc3C)n2)cc1OC [Compound 122, 4,5-Dimethoxy-2-[l-(3-methyl-pyridin-2-yl)-1H-pyrazol-3-yl]-phenol] | 13 µM |
| Oc1ccccc1-c1cc(-c2ccccn2)on1 [Compound 123, 2-(5-Pyridin-2-yl-isoxazol-3-yl)-phenol] | > 32 µM |
| COc1cccc(-c2cc(-c3ccccn3)on2)c1O [Compound 124, 2-Methoxy-6-(5-pyridin-2-yl-isoxazol-3-yl)-phenol] | 26 µM |
| COc1ccc(O)c(-c2cc(-c3ccccn3)on2)c1 [Compound 125, 4-Methoxy-2-(5-pyridin-2-yl-isoxazol-3-yl)-phenol] | 11 µM |
| Oc1c(Cl)cc(Cl)cc1-c1cc(-c2ccccn2)on1 [Compound 127, 2,4-Dichloro-6-(5-pyridin-2-yl-isoxazol-3-yl)-phenol] | 7.4 µM |
| Oc1ccc(Br)cc1-c1cc(-c2ncccc2C(F)(F)F)on1 [Compound 128, 4-Bromo-2-[5-(3-trifluoromethyl-pyridin-2-yl)-isoxazol-3-yl]-phenol] | > 32 µM |
| COc1ccc(O)c(-c2cc(-c3ncccc3C(F)(F)F)on2)c1 [Compound 129, 4-Methoxy-2-[5-(3-trifluoromethyl-pyridin-2-yl)-isoxazol-3-yl]-phenol] | 3.8 µM |
| Oc1ccc(Br)cc1-c1cc(-c2ccccn2)on1 [Compound 130, 4-Bromo-2-(5-pyridin-2-yl-isoxazol-3-yl)-phenol] | 11 µM |
| Cc1cccnc1-c1cc(-c2cc(Br)ccc2O)no1 [Compound 131, 4-Bromo-2-[5-(3-methyl-pyridin-2-yl)-isoxazol-3-yl]-phenol] | 4.5 µM |

— patent publication US20050075375A1 (priority 2003, published 2005)
